Consider three molecules from ChEMBL document CHEMBL3112509, “Synthesis and antimicrobial activity of (1,4-phenylene)bis(arylsulfonylpyrazoles and isoxazoles)” (2014).

Common to all, as to assay type: functional
Experiment [1] deals with Staphylococcus aureus. The experiment in a line: Antibacterial activity against Staphylococcus aureus after 24 hrs.
For experiment [2], the system named is Klebsiella pneumoniae. The experiment can be described thus: Antibacterial activity against Klebsiella pneumoniae after 24 hrs by broth dilution test. On the technique in general: In broth dilution the organism is exposed to a series of concentrations in liquid medium.
In experiment [3] the test system is Pseudomonas aeruginosa. The experiment in a line: Antibacterial activity against Pseudomonas aeruginosa at 100 ug/well after 24 hrs by agar well diffusion method. The following applies: read-out: DIZ. In general terms: In agar diffusion tests the substance spreads into inoculated agar from a disc or well.
Experiment [4] concerns Penicillium chrysogenum. The experiment in a line: Antifungal activity against Penicillium chrysogenum after 48 hrs.
Experiment [5] relates to Klebsiella pneumoniae. The experiment can be described thus: Antibacterial activity against Klebsiella pneumoniae at 50 ug/well after 24 hrs by agar well diffusion method. As to conditions: read-out: DIZ.
Experiment [6] relates to Penicillium chrysogenum. The experiment can be described thus: Antifungal activity against Penicillium chrysogenum at 100 ug/well after 48 hrs by agar well diffusion method. The following applies: read-out: DIZ.
The test system of experiment [7] is Klebsiella pneumoniae. The experiment can be described thus: Antibacterial activity against Klebsiella pneumoniae after 24 hrs.
Experiment [8] concerns Pseudomonas aeruginosa. The experiment can be described thus: Antibacterial activity against Pseudomonas aeruginosa after 24 hrs.
Experiment [9] deals with Staphylococcus aureus. The experiment can be described thus: Antibacterial activity against Staphylococcus aureus at 50 ug/well after 24 hrs by agar well diffusion method. The following applies: read-out: DIZ.
Experiment [10] relates to Bacillus subtilis. The experiment in a line: Antibacterial activity against Bacillus subtilis after 24 hrs.
The test system of experiment [11] is Aspergillus niger. The experiment in a line: Antifungal activity against Aspergillus niger after 48 hrs by broth dilution test.
Experiment [12] concerns Penicillium chrysogenum. The experiment can be described thus: Antifungal activity against Penicillium chrysogenum after 48 hrs by broth dilution test.
The subject of experiment [13] is Staphylococcus aureus. The experiment can be described thus: Antibacterial activity against Staphylococcus aureus after 24 hrs by broth dilution test.
Experiment [14] concerns Aspergillus niger. The experiment can be described thus: Antifungal activity against Aspergillus niger at 50 ug/well after 48 hrs by agar well diffusion method. As to conditions: read-out: DIZ.
In experiment [15] the test system is Bacillus subtilis. The experiment can be described thus: Antibacterial activity against Bacillus subtilis at 100 ug/well after 24 hrs by agar well diffusion method. As to conditions: read-out: DIZ.
The subject of experiment [16] is Pseudomonas aeruginosa. The experiment can be described thus: Antibacterial activity against Pseudomonas aeruginosa after 24 hrs by broth dilution test.
In experiment [17] the test system is Penicillium chrysogenum. The experiment can be described thus: Antifungal activity against Penicillium chrysogenum at 50 ug/well after 48 hrs by agar well diffusion method. As to conditions: read-out: DIZ.
For experiment [18], the system named is Pseudomonas aeruginosa. The experiment can be described thus: Antibacterial activity against Pseudomonas aeruginosa at 50 ug/well after 24 hrs by agar well diffusion method. The following applies: read-out: DIZ.
In experiment [19] the test system is Bacillus subtilis. The experiment in a line: Antibacterial activity against Bacillus subtilis at 50 ug/well after 24 hrs by agar well diffusion method. As to conditions: read-out: DIZ.
In experiment [20] the test system is Bacillus subtilis. The experiment in a line: Antibacterial activity against Bacillus subtilis after 24 hrs by broth dilution test.
The test system of experiment [21] is Klebsiella pneumoniae. The experiment in a line: Antibacterial activity against Klebsiella pneumoniae at 100 ug/well after 24 hrs by agar well diffusion method. As to conditions: read-out: DIZ.
For experiment [22], the system named is Staphylococcus aureus. The experiment can be described thus: Antibacterial activity against Staphylococcus aureus at 100 ug/well after 24 hrs by agar well diffusion method. As to conditions: read-out: DIZ.
Experiment [23] relates to Aspergillus niger. The experiment in a line: Antifungal activity against Aspergillus niger at 100 ug/well after 48 hrs by agar well diffusion method. The following applies: read-out: DIZ.
Experiment [24] relates to Aspergillus niger. The experiment can be described thus: Antifungal activity against Aspergillus niger after 48 hrs.

In brackets after ≈: the same amount, converted by molar mass.

By MBC is commonly meant the smallest concentration meeting the test's criterion for killing. Low readings indicate more potent killing, high ones less potent killing. As a reminder, the MIC is the lowest concentration found to suppress growth. As usually defined, the MFC is the lowest tested concentration that kills the fungus rather than only halting it. For the molecule `O=S(=O)(c1ccc(Cl)cc1)c1c(-c2ccc(Cl)cc2)nn(-c2ccccc2)c1-c1ccc(-c2c(S(=O)(=O)c3ccc(Cl)cc3)c(-c3ccc(Cl)cc3)nn2-c2ccccc2)cc1`, the MBC is above 200 µg/mL against Staphylococcus aureus [1], above 200 µg/mL in the experiment with Klebsiella pneumoniae [7], above 200 µg/mL in the experiment on Pseudomonas aeruginosa [8] and 200 µg/mL (≈ 214 µM) in the experiment on Bacillus subtilis [10]. Moreover, the MIC amounted to 100 µg/mL (≈ 107 µM) in the experiment with Klebsiella pneumoniae [2]; 50 µg/mL (≈ 53.6 µM) in the experiment with Aspergillus niger [11]; 25 µg/mL (≈ 26.8 µM) in the experiment with Penicillium chrysogenum [12]; 50 µg/mL (≈ 53.6 µM) against Staphylococcus aureus [13]; 50 µg/mL (≈ 53.6 µM) in the experiment on Pseudomonas aeruginosa [16]; 50 µg/mL (≈ 53.6 µM) in the experiment on Bacillus subtilis [20]. In addition, the zone of inhibition at 100 µg/disc was determined as 22 mm with Pseudomonas aeruginosa [3]; 31 mm with Penicillium chrysogenum [6]; 34 mm with Bacillus subtilis [15]; 27 mm in the experiment on Klebsiella pneumoniae [21]; 31 mm in the experiment with Staphylococcus aureus [22]; 37 mm in the experiment on Aspergillus niger [23]. For the same molecule, the MFC in the experiment with Penicillium chrysogenum [4] was above 100 µg/mL; with Aspergillus niger [24] it was above 200 µg/mL. Also, the zone of inhibition at 50 µg/disc amounted to 25 mm in the experiment with Klebsiella pneumoniae [5]; 29 mm in the experiment on Staphylococcus aureus [9]; 34 mm in the experiment with Aspergillus niger [14]; 28 mm in the experiment on Penicillium chrysogenum [17]; 20 mm in the experiment on Pseudomonas aeruginosa [18]; 32 mm in the experiment on Bacillus subtilis [19].
As to `O=S(=O)(c1ccccc1)c1c(-c2ccc(Cl)cc2)noc1-c1ccc(-c2onc(-c3ccc(Cl)cc3)c2S(=O)(=O)c2ccccc2)cc1`, the MBC in the experiment on Staphylococcus aureus [1] was 200 µg/mL (≈ 280 µM); in the experiment with Klebsiella pneumoniae [7], above 200 µg/mL; with Pseudomonas aeruginosa [8], 200 µg/mL (≈ 280 µM); in the experiment on Bacillus subtilis [10] it was 50 µg/mL (≈ 70.1 µM). Besides, the minimum inhibitory concentration (MIC) against Klebsiella pneumoniae [2] came to 100 µg/mL (≈ 140 µM); in the experiment with Aspergillus niger [11], 50 µg/mL (≈ 70.1 µM); with Penicillium chrysogenum [12], 25 µg/mL (≈ 35 µM); in the experiment with Staphylococcus aureus [13], 50 µg/mL (≈ 70.1 µM); in the experiment with Pseudomonas aeruginosa [16], 50 µg/mL (≈ 70.1 µM); in the experiment on Bacillus subtilis [20], 25 µg/mL (≈ 35 µM). For the same molecule, the zone of inhibition at 100 µg/disc with Pseudomonas aeruginosa [3] came out at 26 mm; with Penicillium chrysogenum [6] it was 36 mm; in the experiment on Bacillus subtilis [15], 37 mm; with Klebsiella pneumoniae [21] it was 30 mm; in the experiment on Staphylococcus aureus [22], 33 mm; in the experiment with Aspergillus niger [23], 31 mm. For the same molecule, the MFC in the experiment on Penicillium chrysogenum [4] amounted to 100 µg/mL (≈ 140 µM); in the experiment on Aspergillus niger [24], 200 µg/mL (≈ 280 µM). The zone of inhibition at 50 µg/disc in the experiment with Klebsiella pneumoniae [5] amounted to 28 mm; in the experiment with Staphylococcus aureus [9], 31 mm; in the experiment with Aspergillus niger [14], 29 mm; in the experiment on Penicillium chrysogenum [17] it was 34 mm; in the experiment on Pseudomonas aeruginosa [18], 24 mm; with Bacillus subtilis [19], 35 mm.
As to `Cc1ccc(S(=O)(=O)c2c(-c3ccc(Cl)cc3)noc2-c2ccc(-c3onc(-c4ccc(Cl)cc4)c3S(=O)(=O)c3ccc(C)cc3)cc2)cc1`, the MBC was 200 µg/mL (≈ 270 µM) in the experiment with Staphylococcus aureus [1], above 200 µg/mL against Klebsiella pneumoniae [7], above 200 µg/mL against Pseudomonas aeruginosa [8] and 100 µg/mL (≈ 135 µM) against Bacillus subtilis [10]. The MIC turned out to be 100 µg/mL (≈ 135 µM) with Klebsiella pneumoniae [2]; 50 µg/mL (≈ 67.4 µM) in the experiment on Aspergillus niger [11]; 25 µg/mL (≈ 33.7 µM) in the experiment with Penicillium chrysogenum [12]; 50 µg/mL (≈ 67.4 µM) against Staphylococcus aureus [13]; 50 µg/mL (≈ 67.4 µM) against Pseudomonas aeruginosa [16]; 25 µg/mL (≈ 33.7 µM) against Bacillus subtilis [20]. In addition, the zone of inhibition at 100 µg/disc was 24 mm in the experiment on Pseudomonas aeruginosa [3]; 34 mm in the experiment on Penicillium chrysogenum [6]; 36 mm in the experiment with Bacillus subtilis [15]; 28 mm in the experiment with Klebsiella pneumoniae [21]; 32 mm with Staphylococcus aureus [22]; 30 mm in the experiment with Aspergillus niger [23]. Further, the MFC in the experiment with Penicillium chrysogenum [4] is 100 µg/mL (≈ 135 µM); against Aspergillus niger [24], above 200 µg/mL. Besides, the zone of inhibition at 50 µg/disc is 26 mm with Klebsiella pneumoniae [5]; 30 mm with Staphylococcus aureus [9]; 28 mm in the experiment with Aspergillus niger [14]; 32 mm with Penicillium chrysogenum [17]; 22 mm with Pseudomonas aeruginosa [18]; 33 mm in the experiment on Bacillus subtilis [19].
